The values below come from US6545009B1, “Retinoid-related receptor function regulating agent” (Takeda Chemical Industries, Ltd., priority 1998, dated 2003).

By melting point is commonly meant the temperature, or range, at which the solid turns liquid. In general, EC50 refers to the concentration needed to bring the measured effect to its halfway point. Higher therefore signals a less potent agent.

SMILES strings stand for the structures.

For one data set, the target named is T1, PPARγ-RXRα heterodimer (Homo sapiens, UniProt P19793+P37231).
T1 construct: expressed in transfected cells; host or cells: CHO-K1
T1 sequence (P37231 1-477 isoform P37231-2): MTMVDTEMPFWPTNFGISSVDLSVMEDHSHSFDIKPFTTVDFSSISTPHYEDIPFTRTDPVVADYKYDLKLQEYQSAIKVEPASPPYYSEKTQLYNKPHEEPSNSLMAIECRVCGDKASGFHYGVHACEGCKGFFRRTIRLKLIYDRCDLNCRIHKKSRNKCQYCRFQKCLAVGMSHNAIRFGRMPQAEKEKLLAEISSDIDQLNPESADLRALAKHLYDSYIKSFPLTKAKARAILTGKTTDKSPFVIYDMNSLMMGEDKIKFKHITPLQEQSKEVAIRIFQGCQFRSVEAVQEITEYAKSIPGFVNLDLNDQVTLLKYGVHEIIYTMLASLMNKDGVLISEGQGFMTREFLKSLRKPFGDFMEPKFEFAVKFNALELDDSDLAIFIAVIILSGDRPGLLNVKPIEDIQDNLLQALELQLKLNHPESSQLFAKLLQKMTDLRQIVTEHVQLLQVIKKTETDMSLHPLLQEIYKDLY
T1 sequence (P19793 1-462): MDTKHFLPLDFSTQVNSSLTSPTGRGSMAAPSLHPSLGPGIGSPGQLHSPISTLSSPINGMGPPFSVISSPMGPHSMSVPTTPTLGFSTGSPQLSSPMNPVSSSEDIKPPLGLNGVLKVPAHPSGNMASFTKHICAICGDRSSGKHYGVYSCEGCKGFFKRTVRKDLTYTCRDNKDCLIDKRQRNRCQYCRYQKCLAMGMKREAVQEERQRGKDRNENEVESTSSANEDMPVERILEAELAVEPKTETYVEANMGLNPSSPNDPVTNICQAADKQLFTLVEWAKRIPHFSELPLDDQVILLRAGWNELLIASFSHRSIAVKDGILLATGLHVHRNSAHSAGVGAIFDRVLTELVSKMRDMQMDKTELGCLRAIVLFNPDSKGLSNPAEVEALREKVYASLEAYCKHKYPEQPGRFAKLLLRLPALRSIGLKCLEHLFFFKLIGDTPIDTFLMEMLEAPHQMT
The data set can be described thus: PPARγ-RXRα heterodimer ligand activity (luciferase reporter in PPARγ:RXRα:4ERPP/CHO-K1 cells). It counts as cell-based. The note with it: for EC50: luciferase fold induction, 48 hours. As to the method:
PPAR γ:RXR α:4ERPP/CHO-K1 cells obtained in Reference Example 5 were cultured in HAM F12 medium (produced by NISSUI SEIYAKU) containing 10% Fetal bovine serum (produced by Life Technologies, Inc., USA) and then inoculated to a 96-well white plate (produced by Corning Costar Corporation, USA) at the density of 2×10^4 cells/well, and cultured in a CO2 gas incubator at 37° C. overnight.
After washing the 96 well white plate with PBS (Phosphate-buffered saline), 90 μl of HAM F12 medium containing 0.1% fatty acid-free bovine serum albumin (BSA) and 10 μl of test compound were added to each well, and the plate was cultured in a CO2 gas incubator at 37° C. for 48 hours. After removing the medium, 40 μl of PIKKAGENE 7.5 (produced by Wako Pure Chemical Industries, Ltd.) was added to the well. After stirring, the luciferase activity was determined using Lumistar (produced by BMG Labtechnologies GmbH, Germany).
A fold induction was calculated based on the luciferase activity of each test compound by estimating the luciferase activity in the non-treatment group as 1. The values of the test compound concentration and the fold induction were used to calculate the EC50 values, the effective concentration of a test compound for 50% of the maximum fold induction, by using PRISM 2.01 (produced by GraphPad Software Inc. USA).
PPARγ:RXRα:4ERPP/CHO-K1 cells obtained in Reference. Example 5 were cultured in HAM F12 medium (produced by NISSUI SEIYAKU) containing 10% Fetal bovine serum (produced by Life Technologies, Inc., USA) and then inoculated to a 96-well white plate (produced by Corning Costar Corporation, USA) at the density of 2×10^4 cells/well, and cultured in a CO2 gas incubator at 37° C. overnight.
After washing the 96 well white plate with PBS (Phosphate-buffered saline), 90 μl of HAM F12 medium containing 0.1% fatty acid-free bovine serum albumin (BSA) and 10 μl of test compound were added to each well, and the plate was cultured in a CO2 gas incubator at 37° C. for 48 hours. After removing the medium, 40 μl of PIKKAGENE 7.5 produced by Wako Pure Chemical Industries, Ltd.) was added to the well. After stirring, the luciferase activity was determined using Lumistar (produced by BMG Labtechnologies Gmbh, Germany).
A fold induction was calculated based on the luciferase activity of each test compound by estimating the luciferase activity in the non-treatment group as 1. The values of the test compound concentration and the fold induction were used to calculate the EC50 values, the effective concentration of a test compound for 50% of the maximum induction, by using PRISM 2.01 (produced by GraphPad Software Inc. USA). The results are shown in [Table 1].
For orientation: A reporter such as luciferase makes a cellular process visible.

The next data set concerns KKA^y mice. The data set can be described thus: Hypoglycemic and hypolipidemic (hypotriglyceridemic) activities in mice. It counts as in vivo. The conditions noted are these: four days; for Hypoglycemic effect (%) / Hypolipidemic effect (%): 0.01% in powdered diet; for Hypoglycemic effect (%): reduction rate of plasma glucose compared with non-treatment group; for Hypolipidemic effect (%): reduction rate of plasma triglyceride compared with non-treatment group. On the procedure: Test compound was mixed in a powdered diet (CE-2, Japan Clea) at the concentration of 0.01%, and freely given to KKA^y mice (9 to 12 weeks old, 5 mice in a group) a model of obese and non-insulin-dependent diabetes mellitus (Type 2 diabetes mellitus), for four days. […] During the experimental period, water was given freely Blood was obtained from orbital venous plexus, and glucose and triglyceride levels in plasma were determined enzymatically using L type Wako Glu2 (Wako Pure Chemical Industries, Ltd.) and L type Wako TG·H (Wako Pure Chemical Industries, Ltd.), respectively.
Test compound was mixed in a powdered diet (CE-2, Japan Clea) at the concentration of 0.01%, and freely given to KKA^y mice (9 to 12 weeks old, 5 mice in a group), a model of obese and.non-insulin-dependent diabetes mellitus (Type 2 diabtes mellitus), for four days. During this period, water was given freely. Blood was obtained from orbital venous plexus, and glucose and triglyceride levels in plasma were determined enzymatically using L type Wako Glu2 (Wako Pure Chemical Industries, Ltd.) and L type Wako TG·H (Wako Pure Chemical Industries, Ltd.), respectively.
The value of each treatment group is represented as reduction rate (%) compared with the non-treatment group, which is shown in [Table 2].

`CC(C)c1ccc(-c2csc(-c3cccc(C(=O)O)c3)n2)cc1` [Example 100, 3-[4-(4-isopropylphenyl)-2-thiazolyl]benzoic acid] showed a melting point of 214 to 215 °C. This compound gave an EC50 at PPARγ-RXRα heterodimer of 5.1 nM.

Compound `O=C(O)c1ccc(-c2nc(-c3ccc(OC(F)(F)F)cc3)cs2)cc1` [Example 64, 4-[4-(4-trifluoromethoxylphenyl)-2-thiazolyl]benzoic acid] showed a melting point of 245 to 246 °C. Besides, in the data set with KKA^y mice, the “Hypoglycemic effect (%)” value is 68% and the “Hypolipidemic effect (%)” value is recorded as 88%. This compound yielded an EC50 on PPARγ-RXRα heterodimer of 310 nM.

For the compound `CCOc1ccc(-c2csc(-c3cccc(C(=O)O)c3)n2)cc1` [Example 96, 3-[4-(4-ethoxyphenyl)-2-thiazolyl]benzoic acid], the EC50 on PPARγ-RXRα heterodimer turned out to be 1.9 nM.

In the case of `O=C(O)c1cccc(-c2nc(-c3cc(Cl)sc3Cl)cs2)c1` [Example 95, 3-[4-(2,5-dichloro-3-thienyl)-2-thiazolyl]benzoic acid], the melting point lay in the range of 241 to 242 °C. Further, it took 100 nM to reach a half-maximal effect at PPARγ-RXRα heterodimer (EC50).

`Cc1cc(-c2csc(-c3cccc(C(=O)O)c3)n2)c(C)o1` [Example 72, 3-[4-(2,5-dimethyl-3-furyl)-2-thiazolyl]benzoic acid] came in with a melting point of 174 to 175 °C. The half-maximal effective concentration (EC50) on PPARγ-RXRα heterodimer turned out to be 0.6 nM.

`O=C(O)c1ccc(-c2nc(-c3ccc(C(F)(F)F)cc3)cs2)cc1` [Example 55, 4-[4-(4-trifluoromethylphenyl)-2-thiazolyl]benzoic acid] gave a melting point of 164 to 165 °C. In the data set with KKA^y mice, the “Hypoglycemic effect (%)” value came to 70% and the “Hypolipidemic effect (%)” value was 86%. Also, it took 68 nM to reach a half-maximal effect on PPARγ-RXRα heterodimer (EC50).

The compound `O=C(O)c1ccc(-c2cnc(-c3ccc(C(F)(F)F)cc3)o2)cc1` [Example 110, 4-[2-(4-trifluoromethylphenyl)-5-oxazolyl]benzoic acid] showed a melting point of 253 to 254 °C. For the same compound, in the data set on KKA^y mice, the “Hypoglycemic effect (%)” value came out at 73% and the “Hypolipidemic effect (%)” value was 87%. In addition, the midpoint of the response at PPARγ-RXRα heterodimer, the EC50, lay at 48 nM.

`O=C(O)c1ccc(-c2nc(-c3ccc(C(F)(F)F)cc3)co2)cc1` [Example 9, 4-[4-(4-trifluoromethylphenyl)-2-oxazolyl]benzoic acid] showed a melting point of 258 to 259 °C. In addition, in the data set with KKA^y mice, the “Hypoglycemic effect (%)” value amounted to 51% and the “Hypolipidemic effect (%)” value is 67%. Also, the EC50 at PPARγ-RXRα heterodimer was determined as 23 nM.

With `O=C(O)c1ccc(-c2nc(-c3ccc(Cl)cc3)cs2)cc1` [Example 52, 4-[4-(4-chlorophenyl)-2-thiazolyl]benzoic acid], the hypoglycemic activity entry in the data set on KKA^y mice (0.01% in diet, dose ranging from 0.1 to 50 mg/kg/day, plasma glucose) was “potent”. Also, in the data set on KKA^y mice (0.01% in diet, dose ranging from 0.1 to 50 mg/kg/day, plasma triglyceride), the “hypolipidemic (hypotriglyceridemic) activity” value is recorded as “potent”. Moreover, at PPARγ-RXRα heterodimer (at a concentration ranging from 10^−5 M to 10^−9 M), the “PPARγ-RXRα heterodimer ligand activity” value is “potent”.

Take `O=C(O)c1ccc(-c2cnc(-c3ccc(C(F)(F)F)cc3)s2)cc1` [Example 113, 4-[2-(4-trifluoromethylphenyl)-5-thiazolyl]benzoic acid]: in the data set on KKA^y mice, the “Hypoglycemic effect (%)” value is given as 45% and the “Hypolipidemic effect (%)” value came out at 53%. This compound displayed an EC50 on PPARγ-RXRα heterodimer of 60 nM.

In the case of `O=C(O)c1ccc(-c2nc(-c3ccc(Cl)cc3)co2)cc1` [Example 8, 4-[4-(4-chlorophenyl)-2-oxazolyl]benzoic acid], the EC50 at PPARγ-RXRα heterodimer came out at 92 nM.
